Reference: article PMC10254852, “Design, Synthesis and Anticancer Evaluation of Nitroimidazole Radiosensitisers” (Molecules, 2023)
Converted amounts (≈) assume the structure as drawn. Where two headings read alike, the source gives them in different places.

Columns and labels:
HCT116/54C cells [1] = assay: In vitro cytotoxicity, 4 h exposure oxic/anoxic, 5-day regrowth, sulforhodamine B; format: cell-based, human; settings: HCT116/54C; for HCR: IC50(oxic)/IC50(anoxic); for IC50: Homo sapiens, 4 h exposure, mean ± SEM, n = 3–4
Text: (§1) This allowed derivation of hypoxia cytotoxicity ratios (HCR) as IC50(oxic)/IC50(anoxic) in an HCT116 subclone HCT116/54C and two HNSCC cell lines, FaDu and UT-SCC-74B (Table 2).
(§2) HCT116/54C is an HCT116 subline that originated from a mixed culture with UT-SCC-54C cells, which was supplied alongside UT-SCC-74B by Prof. Bradly Wouters (University Health Network, Toronto, ON, Canada). HCT116/54C and UT-SCC-74B cells were passaged in minimum essential media (MEM, ThermoFisher Scientific, Waltham, MA, USA) with 10% foetal calf serum (FCS, Moregate Biotech, Hamilton, New Zealand), 4.5 mg/mL D-glucose (Sigma-Aldrich, St. Louis, MO, USA) and 20 mM HEPES (Sigma-Aldrich). FaDu cells were sourced from American Type Culture Collection and cultured in αMEM (ThermoFisher Scientific) with 10% FCS. All cell lines were confirmed mycoplasma-free by PlasmoTest (InvivoGen, San Diego, CA, USA) and were derived from STR-authenticated cryopreserved stocks. Log-phase cells were seeded into 96-well plates at 800 cells/well for HCT116/54C and 1500 cells/well for FaDu. […] After drug washout, cells were grown and stained as for the oxic IC50 assays. The hypoxic cytotoxicity ratio HCR was determined as HCR = IC50(oxic)/IC50(anoxic).

FaDu cells = assay: as above; format: cell-based; settings: for IC50: Homo sapiens, 4 h exposure, mean ± SEM; for HCR: IC50(oxic)/IC50(anoxic)
Text: as §1, §2

HCT116/54C cells [2] = assay: In vitro radiosensitisation under anoxia, clonogenic survival; format: cell-based, human; settings: compound 1 mM, radiation dose for 1% survival/radiation dose for 1% survival with compound, mean ± SEM
Procedure: Next, we evaluated in vitro radiosensitisation by using a representative subset of nitroimidazole compounds in HCT116/54C cells with a clonogenic survival endpoint. Radiosensitisation was determined by treating cells under anoxia with a range of radiation doses alone and with compounds at equimolar doses (1 mM). Sensitiser enhancement ratios (SER) were calculated as the ratio of radiation dose required for 1% clonogenic survival alone or with compound (Table 3).
Cells were seeded onto 96-well plates at 10^5 cells per well and allowed to attach for 2 h. […] The plates were irradiated (Eldorado 78 ^60Co teletherapy unit, ~2 Gy/min) with 15 Gy under anoxia at room temperature for SR experiments. A metal wedge placed on the top of the metal chamber was used to achieve a graduated radiation dose across the plate, varying from 7 to 29 Gy, calibrated by Fricke dosimetry with ammonium thiocyanate as previously described for SER experiments. The control plate (compound alone, no radiation) was left inside the anaerobic chamber at room temperature during the irradiation period. After treatment, the cells were trypsinized and suspended in usual media + 1% penicillin-streptomycin (ThermoFisher Scientific), and 10-fold serial dilutions were plated for clonogenic survival. After 10 days, plates were stained with methylene blue (2 g/L in EtOH/H2O, 1:1 v/v) and colonies with more than 50 cells were counted. The surviving fraction (SF) was determined as: SF = PE(irradiated)/PE(control) where the plating efficiency (PE) = (No. of colonies)/(No. of cells plated). SF was plotted against radiation dose. Survival ratios (SR) were calculated: SR = (cell survival with radiation)/(cell survival with drug + radiation). Sensitizer enhancement ratios (SER) were calculated: SER = (radiation dose for 1% survival without compound)/(radiation dose for 1% survival with compound).

HCT116/54C tumours = assay: Tumour radiosensitisation: ex vivo clonogenic assay; format: in vivo, NIH-III mice; settings: for Sensitisation Ratio: 2.2 mmol/kg i.v. 5 min prior to 10 Gy radiation, surviving fraction after radiation/surviving fraction after drug + radiation; for enhancement of tumour killing of radiotherapy (RAD vs drug + RAD): 2.2 mmol/kg i.v. + 10 Gy, one-way ANOVA
Procedure: (§3) Specific pathogen-free six- to eight-week-old female NIH-III mice, bred in the Vernon Jansen Unit, University of Auckland, were used for animal experiments. Animals had ad libitum access to food and water and were maintained in microisolator cages on a 12 h light/dark cycle. All treatments were administered by i.v. injection at a dose of 2.2 mmol/kg and injection volume of 10 mL/kg. Compounds 2, 34 and 38 were administered as solutions in saline containing 1% DMSO or for 9–12 as solutions in saline containing 2 molar equivalents of NaHCO3. Control animals received an i.v. injection of saline at 10 mL/kg. All animal experiments were conducted under the auspices of the University of Auckland Animal Ethics Committee (approval 1781).
(§4) Compounds were evaluated for in vivo radiosensitisation of hypoxic cells in HCT116/54C and UT-SCC-74B human tumour xenografts using clonogenic survival as an endpoint, using previously report methods. Tumours were grown subcutaneously on the flanks of NIH-III mice by injecting 5 × 10^6 HCT116/54C cells or UT-SCC-74B cells. Once tumours reached a volume of approximately 250 mm^3, mice were randomly assigned to 4 treatment groups and treated with: (A) vehicle control, (B) 10 Gy RAD only, (C) sensitiser only, or (D) sensitiser given before 10 Gy RAD. Drugs were administered as a single i.v. dose at 2.2 mmol/kg. […] Tumours were excised 18 h after treatment, and tumour cells were dissociated enzymatically and plated to determine the number of surviving (clonogenic) cells per gram of tumour tissue. SF and SR were calculated as described above. Statistical significance of drug effects was tested using one-way ANOVA with Sidak tests for multiple comparisons vs. radiation alone (Table 5).

UT-SCC-74B tumours = assay: as above; format: in vivo, NIH-III mice; settings: for Sensitisation Ratio: 2.2 mmol/kg i.v. 5 min prior to 10 Gy radiation, surviving fraction after radiation/surviving fraction after drug + radiation; for enhancement of tumour cell killing by radiotherapy (RAD vs drug + RAD): 2.2 mmol/kg i.v. + 10 Gy, one-way ANOVA
Procedure: as §3, §4

[3] = tested on: HCT116/54C tumour xenografts; assay: Tumour growth inhibition in combination with radiation; format: in vivo, NIH-III mice; settings: HCT116/54C tumours, fractionated radiation, p < 0.05
Procedure: as §3
Compounds were evaluated for their ability to inhibit tumour growth in combination with a single dose of radiation (10 Gy) in HCT116/54C or UT-SCC-74B tumour xenografts on the backs of NIH-III mice. In addition, a fractionated radiation schedule (5 Gy on Days 1, 7 and 14) was explored in HCT116/54C tumour xenografts. Mice were randomly assigned to 4 treatment groups and treated with: (A) vehicle control, (B) 10 Gy RAD only, (C) sensitiser only, or (D) sensitiser given 10 min before 10 Gy RAD. Drugs were administered by i.v. injection at 2.2 mmol/kg either as a single dose or three doses on Days 1, 7 and 14 in the fractionated study. Treatment commenced when the average tumour size reached approximately 250 mm^3, and tumour size was measured until study endpoint. Mice were placed in a custom-built lead-shielded jig that allowed irradiation of the whole tumour but shielded the mouse from radiation. Survival analysis represented the time taken for tumours to increase in relative tumour volume by 4× from the start of treatment (RTV^4). The significance of differences in activity between the groups was assessed by log-rank with Holm–Sidak multiple comparison analysis.

[4] = parameters: method as in PMID 29253343; settings: NIH-III mice, 2.2 mmol/kg i.v., cited from earlier work; for Cmax: read-out: Plasma Cmax
[5] = Solubility in αMEM culture medium (HPLC of saturated solutions); format: physicochemical; settings: αMEM culture medium with 5% foetal calf serum and 1% DMSO, plasma or biological fluid, kinetic from dmso stock, α-MEM culture medium containing 5% foetal calf serum, 37 °C
[6] = Stability in αMEM culture medium (HPLC after 24 h); format: physicochemical; settings: after 24 h incubation at 37 °C
Procedure: The stability of the same solutions after 24 h incubation at 37 °C was measured by HPLC analysis.

UT-SCC-74B cells = assay: In vitro cytotoxicity, 4 h exposure oxic/anoxic, 5-day regrowth, sulforhodamine B; format: cell-based, human; settings: for IC50: Homo sapiens, 4 h exposure, mean ± SEM; for HCR: IC50(oxic)/IC50(anoxic)
Text: as §1, §2

[7] = anoxic, n = 3–4, read-out: IC50 Anoxic
[8] = oxic, n = 3–4, read-out: IC50 Oxic
[9] = drug alone 2.2 mmol/kg i.v., relative to untreated tumours

Compound | HCR (HCT116/54C cells [1]) | IC50 (HCT116/54C cells [1]; anoxic, read-out: IC50 Anoxic) | IC50 (HCT116/54C cells [1]; oxic, read-out: IC50 Oxic) | IC50 (FaDu cells; [7]) | IC50 (FaDu cells; [8]) | HCR (FaDu cells) | SER at 1 mM (HCT116/54C cells [2]) | Sensitisation Ratio (HCT116/54C tumours) | enhancement of tumour killing of radiotherapy (RAD vs drug + RAD) (HCT116/54C tumours) | AUC [4] | T1/2 [4] | Cmax [4] | IC50 (UT-SCC-74B cells; [7]) | IC50 (UT-SCC-74B cells; [8]) | HCR (UT-SCC-74B cells) | other results
O=C(Cn1ccnc1[N+](=O)[O-])NCCO [Compound 2, etanidazole, reference compound] | >14.8 | 1.7 ± 0.2 mM | > 25 mM | 1.5 ± 0.3 mM | > 20 mM | >13.3 | 1.18 ± 0.00 | 3.34 | significantly enhanced the tumour killing of radiotherapy | 1820 µM·h | 1.05 h | 3640 µM |  |  |  | Sensitisation Ratio (UT-SCC-74B tumours): 8.94; enhancement of tumour cell killing by radiotherapy (RAD vs drug + RAD) (UT-SCC-74B tumours): significantly enhanced tumour cell killing by radiotherapy; single agent cell kill (UT-SCC-74B tumours; [9]): 55.9 ± 1.1%; survival (time to RTV^4) vs radiation alone [3]: significantly increased survival compared to radiation alone
O=[N+]([O-])c1nccn1CS(=O)(=O)NCCOP(=O)(O)O [Compound 9] |  |  |  |  |  |  |  | 6.22 | significantly enhanced the tumour killing of radiotherapy | 550 µM·h | 2.33 h | 920 µM |  |  |  | single agent cell kill (HCT116/54C tumours; [9]): 65.7 ± 8.2%; Sensitisation Ratio (UT-SCC-74B tumours): 9.64; enhancement of tumour cell killing by radiotherapy (RAD vs drug + RAD) (UT-SCC-74B tumours): significantly enhanced tumour cell killing by radiotherapy
O=[N+]([O-])c1nccn1CCS(=O)(=O)NCCOP(=O)(O)O [Compound 10] |  |  |  |  |  |  |  | 1.78 | not | 640 µM·h | 2.21 h | 1140 µM |  |  |  | 
O=[N+]([O-])c1cncn1CS(=O)(=O)NCCOP(=O)(O)O [Compound 11] |  |  |  |  |  |  |  | 1.85 | not | 710 µM·h | 1.72 h | 1100 µM |  |  |  | 
O=[N+]([O-])c1nccn1CCS(=O)(=O)NCC(O)CO (centres unmarked) [Compound 15, N-(2,3-Dihydroxypropyl)-2-(2-nitro-1H-imidazol-1-yl)ethane-1-sulfonamide] | >1.9 | 12.8 ± 4.4 mM | > 25 mM | 7.3 ± 0.9 mM | > 25 mM | >3.4 |  |  |  |  |  |  |  |  |  | solubility [5]: 84.3 mM (≈ 24.8 mg/mL); % Stability in αMEM [6]: 99.9%; melting point: 120 to 123 °C
O=[N+]([O-])c1cncn1CCS(=O)(=O)NCCN1CCOCC1 [Compound 16, N-(2-Morpholinoethyl)-2-(5-nitro-1H-imidazol-1-yl)ethane-1-sulfonamide] | 1.0 | 12.9 ± 0.9 mM | 12.8 ± 1.5 mM | 6.1 ± 0.8 mM | > 16 mM | >2.6 | 1.31 ± 0.01 |  |  |  |  |  | 10.3 ± 2.6 mM | 14.1 ± 2.1 mM | 1.4 | solubility [5]: 83 mM (≈ 27.7 mg/mL); % Stability in αMEM [6]: 99.9%
Cc1ncc([N+](=O)[O-])n1CCS(=O)(=O)NCCO [Compound 41] | >1.1 | 15.5 ± 2.6 mM | > 18 mM | > 22 mM | > 25 mM |  | 1.16 ± 0.01 |  |  |  |  |  | 13.7 ± 3.7 mM | > 21 mM | >1.5 | 
Cc1ncc([N+](=O)[O-])n1CCS(=O)(=O)NCCN1CCOCC1 [Compound 42] | 1.8 | 4.3 ± 0.2 mM | 7.6 ± 0.4 mM | 7.8 ± 0.2 mM | 9.8 ± 1.2 mM | 1.3 | 1.16 ± 0.01 |  |  |  |  |  | 6.6 ± 0.6 mM | 8.9 ± 1.6 mM | 1.4 | 
